Laboratory results published in patent US6599920B2, “Naphthalene compounds, intermediates, formulations, and methods” (Eli Lilly and Company, priority 1996, dated 2003).
pIC50: −log10 of the molar value. Marks after values point to notes of the source that are not given here.

Key:
ovariectomized rats = test: Ovariectomized rat model of postmenopausal hyperlipidemia (serum cholesterol, uterine weight, uterine eosinophil peroxidase); type: in vivo
Procedure: Experimental models of postmenopausal hyperlipidemia are known in the art. […] to this invention is the ovariectomized rat model which is detailed in U.S. Pat. No. 5,464,845. Data presented in Table 1 show comparative results among ovariectomized rats, rats treated with 17-α-ethynyl estradiol (EE2), and rats treated with certain compounds of this invention. […] This uterine response to estrogen is well recognized in the art. As expressed in the data below, estrogenicity also was assessed by evaluating the response of eosinophil infiltration into the uterus. […] The data presented in Table 1 reflect the response per treatment group. In accordance with the above procedures, compounds of the present invention and ethynyl estradiol (EE2) in 20% hydroxypropyl β-cyclodextrin are orally administered to test animals.

[1] = test system: MCF-7 breast adenocarcinoma cells; test: MCF-7 Proliferation Assay; type: cell-based; conditions: Homo sapiens, MCF7; MCF-7 cells, 48 hours with drug; read-out: IC50, inhibition of tumor cell growth (tritiated thymidine uptake)
Procedure: MCF-7 breast adenocarcinoma cells (ATCC HTB 22) were maintained in MEM (minimal essential medium, phenol red-free, Sigma, St. Louis, Mo.) supplimented with 10% fetal bovine serum (FBS) (V/V), L-glutamine (2 mM), sodium pyruvate (1 mM), HEPES {(N-[2-hydroxyethyl]piperazine-N′-[2-ethanesulfonic acid]10 mm}, non-essential amino acids and bovine insulin (1 ug/mL) (maintenance medium). Ten days prior to assay, MCF-7 cells were switched to maintenance medium supplemented with 10% dextran coated charcoal stripped fetal bovine serum (DCC-FBS) assay medium) in place of 10% FBS to deplete internal stores of steroids. MCF-7 cells were removed from maintenance flasks using cell dissociation medium (Ca++/Mg++ free HBSS (phenol red-free) supplemented with 10 mM HEPES and 2 mM EDTA). Cells were washed twice with assay medium and adjusted to 80,000 cells/mL. Approximately […] (8,000 cells) were added to flat-bottom microculture wells (Costar 3596) and incubated at 37° C. in a 5% CO2 humidified incubator for 48 hours to allow for cell adherence and equilibration after transfer. Serial dilutions of drugs or DMSO as a diluent control were prepared in assay medium and […] to triplicate microcultures […]. […] Samples were counted by liquid scintillation using a Wallac BetaPlace β counter. […]

[2] = 0.1 mg/kg PO, in 20% hydroxypropyl β-cyclodextrin

| Uterine EPO (Vmax), eosinophil peroxidase (ovariectomized rats; 0.1 mg/kg PO) | Uterine Wt. (% Inc.), uterine weight % increase versus the ovariectomized controls (ovariectomized rats; [2]) | Uterine EPO (Vmax), eosinophil peroxidase (ovariectomized rats; 1 mg/kg PO) | Uterine Wt. (% Inc.), uterine weight % increase versus the ovariectomized controls (ovariectomized rats; 1 mg/kg PO) | Uterine EPO (Vmax), eosinophil peroxidase (ovariectomized rats; 10 mg/kg PO) | Uterine Wt. (% Inc.), uterine weight % increase versus the ovariectomized controls (ovariectomized rats; 10 mg/kg PO) | pIC50 [1] | SMILES | Serum cholesterol (% Dec.), decrease versus ovariectomized controls (ovariectomized rats; 0.1 mg/kg PO) | Effect on serum cholesterol (ovariectomized rats; oral, compared to ovariectomized animals) | Effect on uterine weight (ovariectomized rats; oral, compared to ovariectomized animals or EE2) | Eosinophil infiltration into the uterus (ovariectomized rats; oral, stromal layer of uteri) | Serum cholesterol (% Dec.), decrease versus ovariectomized controls (ovariectomized rats; 1 mg/kg PO) | Serum cholesterol (% Dec.), decrease versus ovariectomized controls (ovariectomized rats; 10 mg/kg PO) |
| --- | --- | --- | --- | --- | --- | --- | --- | --- | --- | --- | --- | --- | --- |
| 133.8* | 128.0* % |  |  |  |  |  | C#C[C@]1(O)CC[C@H]2[C@@H]3CCc4cc(O)ccc4[C@H]3CC[C@@]21C [EE2, 17-α-Ethynyl-estradiol, reference compound] | 87.5* % | caused a decrease in serum cholesterol | substantially greater than the uterine weight of the ovariectomized animals | substantial and expected increase in eosinophil infiltration |  |  |
| 7.5 | 30.9* % | 5.4 | 31.6* % | 6.0 | 37.2* % | 10.00 | COc1cccc(-c2ccc3cc(OC)ccc3c2Cc2ccc(OCCN3CCCCC3)cc2)c1.Cl [Ex. 1, [2-(3-Methoxyphenyl)-6-methoxynaphthalen-1-yl][4-[2-(1-piperidinyl)ethoxy]phenyl]methane Hydrochloride] | 68.4* % |  |  |  | 74.1* % | 65.0* % |
| 4.8 | 37.6* % | 4.8 | 44.7* % | 4.8 | 28.1* % |  | Cl.Oc1cccc(-c2ccc3cc(O)ccc3c2Cc2ccc(OCCN3CCCCC3)cc2)c1 [Ex. 2, [2-(3-Hydroxyphenyl)-6-hydroxynaphthalen-1-yl][4-[2-(1-piperidinyl)ethoxy]phenyl]methane Hydrochloride] | 6.6% |  |  |  | 28.6% | 46.6* % |
